Data: patent US11051515B2, “3-acyl-benzamides and their use as herbicides” (Bayer Aktiengesellschaft, priority 2017, dated 2021)

Tests used:
LOLMU [1] = assay: Post-emergence action against LOLMU; format: in vivo, Lolium multiflorum; details: dosage 80 g/ha, visual assessment about 3 weeks after treatment vs untreated controls
Description: Seeds of monocotyledonous and dicotyledonous weed and crop plants are laid out in sandy loam soil in wood-fiber pots, covered with soil and cultivated in a greenhouse under good growth conditions. 2 to 3 weeks after sowing, the test plants are treated at the one-leaf stage. The compounds of the invention, formulated in the form of wettable powders (WP) or as emulsion concentrates (EC), are then sprayed onto the green parts of the plants in the form of an aqueous suspension or emulsion at a water application rate equating to […], with addition of 0.2% wetting agent. After the test plants have been left to stand in the greenhouse under optimal growth conditions for about 3 weeks, the action of the preparations is assessed visually in comparison to untreated controls (herbicidal action in percent (%): 100% activity=the plants have died, 0% activity=like control plants). […] At the same time, inventive compounds leave Gramineae crops such as barley, wheat, rye, millet/Sorghum, corn or rice virtually undamaged when applied post-emergence, even at high active ingredient dosages. In addition, some substances are also harmless to dicotyledonous crops such as soya, cotton, oilseed rape, sugar beet or potatoes. Some of the compounds according to the invention have high selectivity and are therefore suitable for controlling unwanted vegetation in agricultural crops by the post-emergence method. The data of Tables B18 to B34 below illustrate, in an exemplary manner, the […] herbicidal action of the compounds according to the invention, the herbicidal activity being stated in percent.

AVEFA [2] = assay: Post-emergence action against AVEFA; format: in vivo, Avena fatua; details: Avena fatua, 504 h; post-emergence, dosage 80 g/ha, visual assessment about 3 weeks after treatment vs untreated controls; read-out: Post-emergence action against AVEFA (herbicidal action in percent)
Method in brief: (§1)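 Weeds grown in sandy loam in greenhouse, treated at one-leaf stage (2–3 weeks after sowing) with WP or EC formulations sprayed as aqueous suspension/emulsion at 600 to […] water with 0.2% wetting agent. Visual rating after about 3 weeks versus untreated controls, as % herbicidal action (100% = plants dead, 0% = like control).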

VERPE [3] = assay: Post-emergence action against VERPE; format: in vivo, Veronica persica; details: dosage 80 g/ha
Method in brief: as §1

ABUTH [4] = assay: Pre-emergence action against ABUTH; format: in vivo, Abutilon theophrasti; details: pre-emergence, dosage 320 g/ha, scored visually after 3 weeks vs untreated controls
Method in brief: (§2)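 Seeds sown in sandy loam in wood-fiber pots and covered with soil. Greenhouse growth; visual damage scored after 3 weeks versus untreated controls (100% = dead, 0% = like control).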

VIOTR [5] = assay: Pre-emergence action against VIOTR; format: in vivo, Viola tricolor; details: Dosage 320 g/ha, pre-emergence
Method in brief: as §2

ALOMY = assay: Pre-emergence action against ALOMY; format: in vivo, Alopecurus myosuroides; details: dosage 320 g/ha, pre-emergence, scored visually after 3 weeks vs untreated controls, 100% = plants have died, 0% = like control plants
Method in brief: as §2

ABUTH [6] = assay: Post-emergence action against ABUTH; format: in vivo, Abutilon theophrasti; details: post-emergence, dosage 80 g/ha, visual assessment about 3 weeks after treatment vs untreated controls
Method in brief: as §1

STEME [7] = assay: Post-emergence action against STEME; format: in vivo, Stellaria media; details: post-emergence, dosage 80 g/ha
Method in brief: as §1

CYPES [8] = assay: Pre-emergence action against CYPES; format: in vivo, Cyperus esculentus; details: pre-emergence, dosage 320 g/ha, scored visually after 3 weeks vs untreated controls
Method in brief: as §2

AMARE [9] = assay: Pre-emergence action against AMARE; format: in vivo, Amaranthus retroflexus; details: pre-emergence, dosage 320 g/ha, scored visually after 3 weeks vs untreated controls
Method in brief: as §2

ECHCG [10] = assay: Pre-emergence action against ECHCG; format: in vivo, Echinochloa crus-galli; details: pre-emergence, dosage 320 g/ha, scored visually after 3 weeks vs untreated controls
Method in brief: as §2

CYPES [11] = assay: Post-emergence action against CYPES; format: in vivo, Cyperus esculentus; details: post-emergence, dosage 80 g/ha, visual assessment about 3 weeks after treatment vs untreated controls
Method in brief: as §1

AVEFA [12] = assay: Pre-emergence action against AVEFA; format: in vivo, Avena fatua; details: dosage 320 g/ha, scored visually after 3 weeks vs untreated controls
Method in brief: as §2

VIOTR [13] = assay: Post-emergence action against VIOTR; format: in vivo, Viola tricolor; details: post-emergence, dosage 80 g/ha
Method in brief: as §1

VERPE [14] = assay: Pre-emergence action against VERPE; format: in vivo, Veronica persica; details: Dosage 320 g/ha, pre-emergence
Method in brief: as §2

ECHCG [15] = assay: Post-emergence action against ECHCG; format: in vivo, Echinochloa crus-galli; details: post-emergence, dosage 80 g/ha, visual assessment about 3 weeks after treatment vs untreated controls
Method in brief: as §1

PHBPU = assay: Post-emergence action against PHBPU; format: in vivo, Pharbitis purpurea; details: post-emergence, dosage 80 g/ha
Method in brief: as §1

STEME [16] = assay: Pre-emergence action against STEME; format: in vivo, Stellaria media; details: Dosage 320 g/ha, pre-emergence
Method in brief: as §2

POLCO [17] = assay: Post-emergence action against POLCO; format: in vivo, Polygonum convolvulus; details: Fallopia convolvulus, 504 h; post-emergence, dosage 80 g/ha
Method in brief: as §1

SETVI [18] = assay: Post-emergence action against SETVI; format: in vivo, Setaria viridis; details: post-emergence, dosage 80 g/ha, visual assessment about 3 weeks after treatment vs untreated controls
Method in brief: as §1

MATIN [19] = assay: Post-emergence action against MATIN; format: in vivo, Matricaria inodora; details: post-emergence, dosage 80 g/ha, visual assessment about 3 weeks after treatment vs untreated controls
Method in brief: as §1

MATIN [20] = assay: Pre-emergence action against MATIN; format: in vivo, Matricaria inodora; details: Dosage 320 g/ha, pre-emergence
Method in brief: as §2

LOLMU [21] = assay: Pre-emergence action against LOLMU; format: in vivo, Lolium multiflorum; details: dosage 320 g/ha, scored visually after 3 weeks vs untreated controls
Method in brief: as §2

SETVI [22] = assay: Pre-emergence action against SETVI; format: in vivo, Setaria viridis; details: pre-emergence, dosage 320 g/ha, scored visually after 3 weeks vs untreated controls
Method in brief: as §2

POLCO [23] = assay: Pre-emergence action against POLCO; format: in vivo, Polygonum convolvulus; details: Dosage 320 g/ha, pre-emergence
Method in brief: as §2

AMARE [24] = assay: Post-emergence action against AMARE; format: in vivo, Amaranthus retroflexus; details: post-emergence, dosage 80 g/ha, visual assessment about 3 weeks after treatment vs untreated controls
Method in brief: as §1

## CC(=O)c1c(C(F)(F)F)ccc(C(=O)Nc2nnnn2C)c1Br [1-195]
LOLMU [1]; Lolium multiflorum, 504 h, read-out: Post-emergence action against LOLMU (herbicidal action in percent)
  pest or weed control at 80 g/ha: 90%
AVEFA [2]
  pest or weed control at 80 g/ha: 80%
VERPE [3]; Veronica persica, 504 h
  pest or weed control at 80 g/ha: 80%
ABUTH [4]; Abutilon theophrasti, 504 h, read-out: Pre-emergence action against ABUTH (herbicidal activity)
  pest or weed control at 320 g/ha: 100%
VIOTR [5]; Viola tricolor, 504 h
  pest or weed control at 320 g/ha: 100%
ALOMY; Alopecurus myosuroides, 504 h, read-out: Pre-emergence action against ALOMY (herbicidal activity in percent)
  pest or weed control at 320 g/ha: 90%
ABUTH [6]; Abutilon theophrasti, 504 h, read-out: Post-emergence action against ABUTH (herbicidal action in percent)
  pest or weed control at 80 g/ha: 80%
STEME [7]; Stellaria media, 504 h
  pest or weed control at 80 g/ha: 100%
CYPES [8]; Cyperus esculentus, 504 h, read-out: Pre-emergence action against CYPES (herbicidal activity)
  pest or weed control at 320 g/ha: 100%
AMARE [9]; Amaranthus retroflexus, 504 h, read-out: Pre-emergence action against AMARE (herbicidal activity)
  pest or weed control at 320 g/ha: 100%
ECHCG [10]; Echinochloa crus-galli, 504 h, read-out: Pre-emergence action against ECHCG (herbicidal activity)
  pest or weed control at 320 g/ha: 100%
CYPES [11]; Cyperus esculentus, 504 h, read-out: Post-emergence action against CYPES (herbicidal action in percent)
  pest or weed control at 80 g/ha: 80%
AVEFA [12]; Avena fatua, 504 h, read-out: Pre-emergence action against AVEFA (herbicidal activity)
  pest or weed control at 320 g/ha: 100%
VIOTR [13]; Viola tricolor, 504 h
  pest or weed control at 80 g/ha: 100%
VERPE [14]; Veronica persica, 504 h
  pest or weed control at 320 g/ha: 100%
ECHCG [15]; Echinochloa crus-galli, 504 h, read-out: Post-emergence action against ECHCG (herbicidal action in percent)
  pest or weed control at 80 g/ha: 90%
PHBPU; Ipomoea purpurea, 504 h
  pest or weed control at 80 g/ha: 90%
STEME [16]; Stellaria media, 504 h
  pest or weed control at 320 g/ha: 90%
POLCO [17]
  pest or weed control at 80 g/ha: 90%
SETVI [18]; Setaria viridis, 504 h, read-out: Post-emergence action against SETVI (herbicidal action in percent)
  pest or weed control at 80 g/ha: 90%
MATIN [19]; Tripleurospermum inodorum, 504 h, read-out: Post-emergence action against MATIN (herbicidal action in percent)
  pest or weed control at 80 g/ha: 90%
MATIN [20]; Tripleurospermum inodorum, 504 h
  pest or weed control at 320 g/ha: 100%
LOLMU [21]; Lolium multiflorum, 504 h, read-out: Pre-emergence action against LOLMU (herbicidal activity)
  pest or weed control at 320 g/ha: 90%
SETVI [22]; Setaria viridis, 504 h, read-out: SETVI (Table B8, pre-emergence herbicidal activity)
  pest or weed control at 320 g/ha: 100%
POLCO [23]; Fallopia convolvulus, 504 h
  pest or weed control at 320 g/ha: 80%

## CCn1nnnc1NC(=O)c1ccc(C(F)(F)F)c(C(C)=O)c1C [2-14]
LOLMU [1]
  Post-emergence action against LOLMU (herbicidal action in percent): 80%
VERPE [3]
  Post-emergence action against VERPE: 80
ABUTH [4]
  Pre-emergence action against ABUTH (herbicidal activity): 100%
VIOTR [5]
  Pre-emergence action against VIOTR: 100%
ALOMY
  Pre-emergence action against ALOMY (herbicidal activity in percent): 80%
ABUTH [6]
  Post-emergence action against ABUTH (herbicidal action in percent): 100%
STEME [7]
  Post-emergence action against STEME: 100
CYPES [8]
  Pre-emergence action against CYPES (herbicidal activity): 90%
AMARE [9]
  Pre-emergence action against AMARE (herbicidal activity): 100%
ECHCG [10]
  Pre-emergence action against ECHCG (herbicidal activity): 100%
CYPES [11]
  Post-emergence action against CYPES (herbicidal action in percent): 90%
AVEFA [12]
  Pre-emergence action against AVEFA (herbicidal activity): 90%
VIOTR [13]
  Post-emergence action against VIOTR: 100
VERPE [14]
  Pre-emergence action against VERPE: 100%
ECHCG [15]
  Post-emergence action against ECHCG (herbicidal action in percent): 100%
PHBPU
  Post-emergence action against PHBPU: 90
STEME [16]
  Pre-emergence action against STEME: 100%
SETVI [18]
  Post-emergence action against SETVI (herbicidal action in percent): 90%
AMARE [24]
  Post-emergence action against AMARE (herbicidal action in percent): 100%
MATIN [19]
  Post-emergence action against MATIN (herbicidal action in percent): 100%
MATIN [20]
  Pre-emergence action against MATIN: 100%
LOLMU [21]
  Pre-emergence action against LOLMU (herbicidal activity): 80%
SETVI [22]
  SETVI (Table B8, pre-emergence herbicidal activity): 100%
POLCO [23]
  Pre-emergence action against POLCO: 80%
